Measured values from patent EP3797781A1, “USE OF EC-7072 AND SYNERGIC COMPOSITIONS THEREOF IN TREATMENT OF CHRONIC LYMPHOCYTIC LEUKEMIA” (priority 2019, dated 2021).

Tests used:
HK-2 cells = assay: Cell death of HK-2 cells by PI staining; assay type: cell-based, human; settings: 200 nM, 24 hours; n = 3
Experimental: Effectiveness of EC-7072 against different B-cell malignancies was assessed by; • (i) incubating primary fibroblasts from healthy donors (n = 4) and HK-2 cells from healthy human adult kidney (n = 3) following treatment with MTA (200 nM) or EC-7072 (200 nM) for 24 hours. Cell death was evaluated by PI staining to obtain the percentages corresponding to the [PI^+] subset (Figure 5A) and the mean percentage of [PI^+] cells (Figure 5B); • (ii) treating MEC-1, GRANTA-519, Z-138, JVM-2, CA-46, Ramos, Raji and U266 cell lines (n = 3) following treatment with EC-7072 (500 nM) followed by incubation for 24 hours. Cell viability was assessed by DiOC6(3)/PI staining and normalized to control (DMSO) condition to obtain mean percentage of viable [DiOC6(3)^+] cells (Figure 5C).

[1] = test system: MEC-1, GRANTA-519, Z-138, JVM-2, CA-46, Ramos, Raji and U266 cell lines; assay: Viability of B-cell malignancy cell lines by DiOC6(3)/PI staining; assay type: cell-based; settings: 500 nM, 24 hours; n = 3; Figure 5C
Experimental: Cell viability and apoptosis were evaluated by double-staining with the mitochondrial inner transmembrane potential (ΔΨm)-sensitive dye DiOC6(3) (3,3'-dihexyloxacarbocyanine iodide; Sigma-Aldrich) and the exclusion dye propidium iodide (PI; Immunostep), allowing identification of apoptotic [DiOC6(3)^low PI^-] and dead [PI^+] cells as per Proc. Natl. Acad. Sci. U.S.A. (2014) 111(8):3020-3025 and Methods Mol. Biol. (2016) 1419:1-16. Briefly, PBMCs were resuspended in culture medium containing 20 nM DiOC6(3) and incubated for 30 minutes at 37 °C. Then, PI (1 µg/mL) was added and cells were further incubated for 10 minutes at room temperature (RT). Cells were analyzed by flow cytometry considering DiOC6(3)^+PI^- cells as viable. In some experiments, apoptosis was evaluated by staining with Annexin V/PI. […]
Effectiveness of EC-7072 against different B-cell malignancies was assessed by; • (i) incubating primary fibroblasts from healthy donors (n = 4) and HK-2 cells from healthy human adult kidney (n = 3) following treatment with MTA (200 nM) or EC-7072 (200 nM) for 24 hours. […] Cell viability was assessed by DiOC6(3)/PI staining and normalized to control (DMSO) condition to obtain mean percentage of viable [DiOC6(3)^+] cells (Figure 5C).

histone H2AX = assay: Phosphoflow of phosphorylated H2AX in isolated leukemia cells; assay type: cell-based, human; settings: 200 nM, 12 hours; isolated leukemia cells (n = 4)
Experimental: Protein phosphorylation levels were evaluated by phosphoflow. Briefly, isolated leukemia cells from patients with CLL were treated with 200 nM EC-7072 or DMSO for 8 or 12 hours. In some experiments, BCR signaling was activated with goat F(ab')2 anti-IgM antibody (10 µg/mL; SouthernBiotech) for 45 minutes. Right afterwards, cells were fixed with 1.8% paraformaldehyde for 10 minutes at RT and permeabilized with 90% ice-cold methanol for 25 minutes at 4 °C. Finally, cells were incubated with specific phospho-antibodies (p-SYK, p-BTK, p-ERK1/2 and p-H2AX from Biolegend, and p-PLCγ2, p-AKT, p-p65 NF-κB and p-STAT3 from BD Bioscience) for 30 minutes at RT and mean fluorescence intensity (MFI) was analyzed by flow cytometry.
The induction of caspase-dependent apoptosis on primary CLL cells by EC-7072 was assessed by: • (i) incubating PBMCs isolated from patients with CLL (n = 6) following treatment with increasing concentrations of EC-7072 (0 - 400 nM) for 24 hours. Apoptosis of leukemia cells was evaluated by cytofluorometric assessment of Annexin V/PI staining to obtain percentages of apoptotic [Annexin V^+ PI^-] and dead [PI^+] cells (Figure 3A); • (ii) incubating PBMCs and T cells isolated from patients with CLL (n = 3) following treatment with EC-7072 (200 nM) for 24 hours. […]

SMILES: CO[C@@H]([C@@H]1Cc2cc3cc(O[C@H]4C[C@@H](O[C@H]5C[C@@H](O)[C@H](O)[C@@H](C)O5)[C@H](O)[C@@H](C)O4)c(C)c(O)c3c(O)c2C(=O)[C@H]1O[C@H]1C[C@@H](O[C@H]2C[C@@H](O[C@H]3C[C@](C)(O)[C@H](O)[C@@H](C)O3)[C@@H](O)[C@@H](C)O2)[C@H](O)[C@@H](C)O1)[C@@H](O)C(C)=O [EC-7072, mithramycin SK]
- viability of HK-2 cells (PI^+ cells) (HK-2 cells): did not markedly affect the viability
- surviving cell fraction of tumor cell lines derived from B-cell hematologic malignancies [1]: significantly reduced the surviving cell fraction
- phosphorylation of histone H2AX (histone H2AX): heightened phosphorylation
